The results in this text go back to patent US20250154124A1, “PROCESSES FOR THE PREPARATION OF N-(1-METHYLCYCLOPROPYL)-2-(3-PYRIDINYL)-2H-INDAZOLE-4-CARBOXAMIDE AND INTERMEDIATES THEREOF” (FMC CORPORATION, priority 2022, published 2025).

Series [1] is described as follows: Stable polymorph form screen (slurry experiments). To be noted: between 2° C. and 73° C. Type of series: physicochemical. The method, then:
Slurry experiments were conducted to identify the stable form at various conditions. In these experiments, saturated solutions in various solvents containing excess undissolved solids (starting with Form A+minor Form B) were stirred for extended durations. Slurries at room temperature (RT) and 2-8° C. were typically conducted for approximately 2 weeks, while slurries at 72-73° C. were stirred for a shorter duration (1 day) to minimize the potential for decomposition. […] The results are shown in the table 12 where the time and temperatures are approximate.

Series [2] in a line: Form A and Form B interconversion (competitive) slurries. Type of series: physicochemical. To be noted: between 2° C. and 72° C. Here is the method:
Relative thermodynamic stabilities of anhydrous/non-solvated Forms A and B were studied at 2-8° C., room temperature (RT) and at 71-72° C. via interconversion (competitive) slurries. In these slurries, a given solvent system was pre-saturated with compound 092 (Form A+minor Form B) at the stated temperature, and a portion of the liquid phase was filtered into a mixture of solids containing relatively equal amounts of Form A and Form B. Interconversion slurries at 2-8° C. and RT were allowed to stir for 22 days, while slurries at 71-72° C. stirred for shorter duration (2-4 days). […] The results are reported in table 13 below where: liquid phase for each slurry was pre-saturated using as-received Form A+minor Form B; solvent ratios are v/v; water activity values were calculated using UNIFAC calculator at RT; and times and temperatures are approximate.

Each structure is given as a SMILES string.

In the case of `CC1(NC(=O)c2cccc3nn(-c4cccnc4)cc23)CC1` [Form A, N-(1-methylcyclopropyl)-2-(3-pyridinyl)-2H-indazole 4-carboxamide], in series [1], the “relative stability of polymorph forms (slurry screen)” value is “more stable than Form B”. In addition, in series [2], the “relative thermodynamic stability of Forms A and B (competitive slurries)” value was “thermodynamically stable form”.
